Laboratory results as given in US10233182B2, “Substituted spirocyclic inhibitors of autotaxin” (X-Rx, Inc., priority 2014, dated 2019).
pIC50: −log10 of the molar value. Counter-ions that a name gives are not always drawn.

Molecular target: Autotaxin (Homo sapiens (Human), UniProt Q13822)
Assay: Autotaxin LPC Cascade Assay
Type: biochemical
Conditions: Autotaxin 5 nM, LPC 100 μM, choline oxidase/HRP/Ampliflu Red fluorescence read-out, 2% DMSO, RT; read-out: IC50 ATX Activity
Summary of the method: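 Choline liberated from LPC by autotaxin during 1 h, after a 10-min RT compound preincubation, was converted through choline oxidase/HRP to a fluorescent Ampliflu Red product.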

| SMILES | pIC50 |
| --- | --- |
| CC(C)[C@@H](NC(=O)c1cc(C(F)(F)F)ccc1F)C(=O)N1CCC2(CC1)C(=O)N(CC1CC1)CN2c1ccc(C(=O)O)cc1 [Example 155, (R)-4-(3-(Cyclopropylmethyl)-8-(2-(2-fluoro-5-(trifluoromethyl)benzamido)-3-methylbutanoyl)-4-oxo-1,3,8-triazaspiro[4.5]decan-1-yl)benzoic Acid] | > 6.30 |
| CN1CN(c2ccc(C(=O)O)cc2)C2(CCN(C(=O)[C@H](NC(=O)c3cc(C(F)(F)F)ccc3F)C3CCCC3)CC2)C1=O [Example 156, (R)-4-(8-(2-Cyclopentyl-2-(2-fluoro-5-(trifluoromethyl)benzamido)acetyl)-3-methyl-4-oxo-1,3,8-triazaspiro[4.5]decan-1-yl)benzoic Acid] | > 6.30 |
| CC(C)[C@@H](NC(=O)c1cc(C(F)(F)F)ccc1F)C(=O)N1CCC2(CC1)C(=O)N(C)CN2c1ccc(C(N)=O)cc1 [Example 157, (R)—N-(1-(1-(4-Carbamoylphenyl)-3-methyl-4-oxo-1,3,8-triazaspiro[4.5]decan-8-yl)-3-methyl-1-oxobutan-2-yl)-2-fluoro-5-(trifluoromethyl)benzamide] | > 6.30 |
| Cc1cc(N2CN(C)C(=O)C23CCN(C(=O)[C@H](NC(=O)c2cc(C(F)(F)F)ccc2F)C(C)C)CC3)ccc1C(=O)O [Example 158, (R)-4-(8-(2-(2-Fluoro-5-(trifluoromethyl)benzamido)-3-methylbutanoyl)-3-methy-4-oxo-1,3,8-triazaspiro[4.5]decan-1-yl)-2-methylbenzoic Acid] | ≤ 6.00 |
| CN1CN(c2ccc(C(=O)O)cc2)C2(CCN(C(=O)[C@H](NC(=O)c3cc(C(F)(F)F)ccc3F)C(C)(C)C)CC2)C1=O [Example 159] | ≤ 6.00 |
| CC(C)[C@@H](NC(=O)c1cc(Cl)cc(C(F)(F)F)c1)C(=O)N1CCC2(CC1)C(=O)N(C)CN2c1ccc(C(=O)O)cc1 [Example 160, (R)-4-(8-(2-(3-Chloro-5-(trifluoromethyl)benzamido)-3-methylbutanoyl)-3-methyl-4-oxo-1,3,8-triazaspiro[4.5]decan-1-yl)benzoic Acid] | > 6.30 |
| Cc1ccc(C(F)(F)F)cc1C(=O)N[C@@H](C(=O)N1CCC2(CC1)C(=O)N(C)CN2c1ccc(C(=O)O)cc1)C(C)C [Example 161, (R)-4-(3-Methyl-8-(3-methyl-2-(2-methyl-5-(trifluoromethyl)benzamido)butanoyl)-4-oxo-1,3,8-triazaspiro[4.5]decan-1-yl)benzoic Acid] | 6.00 to 6.30 |
| CC(C)[C@@H](NC(=O)c1cc(OC(F)(F)F)ccc1F)C(=O)N1CCC2(CC1)C(=O)N(C)CN2c1ccc(C(=O)O)cc1 [Example 162, (R)-4-(8-(2-(2-Fluoro-5-(trifluoromethoxy)benzamido)-3-methylbutanoyl)-3-methyl-4-oxo-1,3,8-triazaspiro[4.5]decan-1-yl)benzoic Acid] | > 6.30 |
| COc1ccc(F)c(C(=O)N[C@@H](C(=O)N2CCC3(CC2)C(=O)N(C)CN3c2ccc(C(=O)O)cc2)C(C)C)c1 [Example 163, (R)-4-(8-(2-(2-Fluoro-5-methoxybenzamido)-3-methylbutanoyl)-3-methyl-4-oxo-1,3,8-triazaspiro[4.5]decan-1-yl)benzoic Acid] | > 6.30 |
| CC(C)[C@@H](NC(=O)C12CC3CC(CC(C3)C1)C2)C(=O)N1CCC2(CC1)C(=O)N(C)CN2c1ccc(C(=O)O)cc1 [Example 164, (R)-4-(8-(2-(1-Admantanecarboxamido)-3-methylbutanoyl)-3-methyl-4-oxo-1,3,8-triazaspiro[4.5]decan-1-yl)benzoic Acid] | ≤ 6.00 |
| CC(C)[C@@H](NC(=O)c1cc(OC(F)F)ccc1F)C(=O)N1CCC2(CC1)C(=O)N(C)CN2c1ccc(C(=O)O)cc1 [Example 165, (R)-4-(8-(2-(5-(Difluoromethoxy)-2-fluorobenzamido)-3-methylbutanoyl)-3-methyl-4-oxo-1,3,8-triazaspiro[4.5]decan-1-yl)benzoic Acid] | > 6.30 |
| CC(C)[C@@H](NC(=O)c1cc(OC(F)F)ccc1F)C(=O)N1CCC2(CC1)C(=O)N(C)C(=O)N2c1ccc(C(=O)O)cc1 [Example 166, (R)-4-(8-(2-(5-(Difluoromethoxy)-2-fluorobenzamido)-3-methylbutanoyl)-3-methyl-2,4-dioxo-1,3,8-triazaspiro[4.5]decan-1-yl)benzoic Acid] | > 6.30 |
| CC(C)[C@@H](NC(=O)c1cc(OC(F)(F)F)ccc1F)C(=O)N1CCC2(CC1)C(=O)N(C)C(=O)N2c1ccc(C(=O)O)cc1 [Example 167, (R)-4-(8-(2-(2-Fluoro-5-(trifluoromethoxy)benzamido)-3-methylbutanoyl)-3-methyl-2,4-dioxo-1,3,8-triazaspiro[4.5]decan-1-yl)benzoic Acid] | > 6.30 |
| CCc1ccc(F)c(C(=O)N[C@@H](C(=O)N2CCC3(CC2)C(=O)N(C)CN3c2ccc(OCC(=O)O)cc2)C(C)C)c1 [Example 168, (R)-2-(4-(8-(2-(5-Ethyl-2-fluorobenzamido)-3-methylbutanoyl)-3-methyl-4-oxo-1,3,8-triazaspiro[4.5]decan-1-yl)phenoxy)acetic Acid] | > 6.30 |
| CCc1ccc(F)c(C(=O)N[C@@H](C(=O)N2CCC3(CC2)C(=O)N(C)CN3c2ccc(OCC(N)=O)cc2)C(C)C)c1 [Example 169, (R)—N-(1-(1-(4-(2-Amino-2-oxoethoxy)phenyl)-3-methyl-4-oxo-1,3,8-triazaspiro[4.5]decan-8-yl)-3-methyl-1-oxobutan-2-yl)-5-ethyl-2-fluorobenzamide] | > 6.30 |
| CCc1ccc(F)c(C(=O)N[C@@H](C(=O)N2CCC3(CC2)C(=O)N(C)CN3c2ccc(OCC#N)cc2)C(C)C)c1 [Example 170, (R)—N-(1-(1-(4-(Cyanomethoxy)phenyl)-3-methyl-4-oxo-1,3,8-triazaspiro[4.5]decan-8-yl)-3-methyl-1-oxobutan-2-yl)-5-ethyl-2-fluorobenzamide] | > 6.30 |
| CC(C)[C@@H](NC(=O)c1cc(C(F)(F)F)ccc1F)C(=O)N1CCC2(CC1)C(=O)N(C)CN2c1ccc(OCCN(C)C)cc1 [Example 171, (R)—N-(1-(1-(4-(2-(Dimethylamino)ethoxy)phenyl)-3-methyl-4-oxo-1,3,8-triazaspiro[4.5]decan-8-yl)-3-methyl-1-oxobutan-2-yl)-2-fluoro-5-(trifluoromethyl)benzamide trifluoroacetic Acid Salt] | > 6.30 |
| CCc1ccc(F)c(C(=O)N[C@@H](C(=O)N2CCC3(CC2)C(=O)N(C)CN3c2ccc(NC(C)=O)cc2)C(C)C)c1 [Example 172, (R)—N-(1-(1-(4-Acetamidophenyl)-3-methyl-4-oxo-1,3,8-triazaspiro[4.5]decan-8-yl)-3-methyl-1-oxobutan-2-yl)-5-ethyl-2-fluorobenzamide] | > 6.30 |
| CCc1ccc(F)c(C(=O)N[C@@H](C(=O)N2CCC3(CC2)C(=O)N(C)CN3c2ccc(NS(C)(=O)=O)cc2)C(C)C)c1 [Example 173, (R)-5-Ethyl-2-fluoro-N-(3-methyl-1-(3-methyl-1-(4-(methylsulfonamido)phenyl)-4-oxo-1,3,8-triazaspiro[4.5]decan-8-yl)-1-oxobutan-2-yl)benzamide] | > 6.30 |
| CC(C)[C@@H](NC(=O)c1cc(C(F)(F)F)ccc1F)C(=O)N1CCC2(CC1)C(=O)N(C)CN2c1ccc(NS(C)(=O)=O)cc1 [Example 174, (R)-2-Fluoro-N-(3-methyl-1-(3-methyl-1-(4-(methylsulfonamido)phenyl)-4-oxo-1,3,8-triazaspiro[4.5]decan-8-yl)-1-oxobutan-2-yl)-5-(trifluoromethyl)benzamide] | > 6.30 |
| COC(=O)Nc1ccc(N2CN(C)C(=O)C23CCN(C(=O)[C@H](NC(=O)c2cc(C(F)(F)F)ccc2F)C(C)C)CC3)cc1 [Example 175, (R)-Methyl-4-(8-(2-(2-fluoro-5-(trifluoromethyl)benzamido)-3-methylbutanoyl)-3-methyl-4-oxo-1,3,8-triazaspiro[4.5]decan-1-yl)phenylcarbamate] | > 6.30 |
| Cc1cc(F)cc(C(=O)N[C@@H](C(=O)N2CCC3(CC2)C(=O)N(CC(=O)O)CN3c2ccccc2)C(C)C)c1 [Example 176, (R)-2-(8-(2-(3-Fluoro-5-methylbenzamido)-3-methylbutanoyl)-4-oxo-1-phenyl-1,3,8-triazaspiro[4.5]decan-3-yl)acetic Acid] | 6.00 to 6.30 |
| Cc1cccc(C(=O)N[C@@H](C(=O)N2CCC3(CC2)C(=O)N(CCCS(C)(=O)=O)CN3c2ccccc2)C(C)C)c1F [Example 177, (R)-2-Fluoro-3-methyl-N-(3-methyl-1-(3-(3-(methylsulfonyl)propyl)-4-oxo-1-phenyl-1,3,8-triazaspiro[4.5]decan-8-yl)-1-oxobutan-2-yl)benzamide] | > 6.30 |
| CCc1ccc(F)c(C(=O)N[C@@H](C(=O)N2CCC3(CC2)C(=O)N(CC#N)CN3c2ccccc2)C(C)C)c1 [Example 178, (R)—N-(1-(3-(Cyanomethyl)-4-oxo-1-phenyl-1,3,8-triazaspiro[4.5]decan-8-yl)-3-methyl-1-oxobutan-2-yl)-5-ethyl-2-fluorobenzamide] | > 6.30 |
| Cc1cccc(C(=O)N[C@@H](C(=O)N2CCC3(CC2)C(=O)N(C)CN3c2ccc(C#N)cc2)C(C)C)c1F [Example 179, (R)—N-(1-(1-(4-Cyanophenyl)-3-methyl-4-oxo-1,3,8-triazaspiro[4.5]decan-8-yl)-3-methyl-1-oxobutan-2-yl)-2-fluoro-3-methylbenzamide] | > 6.30 |
| CC(C)[C@@H](NC(=O)c1cc(C(F)(F)F)ccc1F)C(=O)N1CCC2(CC1)C(=O)N(C)C(=O)N2c1ccc(Cl)cc1 [Example 181, (R)—N-(1-(1-(4-Chlorophenyl)-3-methyl-2,4-dioxo-1,3,8-triazaspiro[4.5]decan-8-yl)-3-methyl-1-oxobutan-2-yl)-2-fluoro-5-(trifluoromethyl)benzamide] | > 6.30 |
| CC(C)[C@@H](NC(=O)c1cc(C(F)(F)F)ccc1F)C(=O)N1CCC2(CC1)C(=O)N(C)C(=O)N2c1ccc(F)cc1 [Example 182, (R)-2-Fluoro-N-(1-(1-(4-fluorophenyl)-3-methyl-2,4-dioxo-1,3,8-triazaspiro[4.5]decan-8-yl)-3-methyl-1-oxobutan-2-yl)-5-(trifluoromethyl)benzamide] | > 6.30 |
